This passage reports Ratio, GI50 and IC50 results from ChEMBL document CHEMBL1138771, “Novel arylsulfoanilide-oxindole hybrid as an anticancer agent that inhibits translation initiation” (J Med Chem, 2004).

One test has as its system NIH 3T3 (Mus musculus). The experiment in a line: Ratio of the peak heights normalized to the peak of clotrimazole as a reference was a measure of intracellular [Ca2+] stores depletion in NIH 3T3 cell.
The next test has as its system A549. Kind of test: Concentration required for growth inhibition of human lung cancer cells (A549). In kind it is functional.
In another test the test system is DU-145. The experiment in a line: Concentration required for growth inhibition of human prostate cancer cells (DU145) was determined. The format is functional, cell-based.

Regarding `O=C1Nc2ccccc2C1(c1ccccc1)c1ccccc1`, the Ratio with NIH 3T3 (Mus musculus) is recorded as 0.87. The compound further had a GI50 in the test on A549 of 13 µM. The compound also returned an IC50 in the test on DU-145 of 12500 nM.

For `O=S(=O)(Nc1ccccc1)c1ccc(-c2ccccc2)cc1`, the Ratio in the test on NIH 3T3 (Mus musculus) was found to be 1.37. Also, growth with A549 was halved (GI50) at 17 µM.

For `CC(C)(C)c1ccc(S(=O)(=O)Nc2cccc(O)c2)cc1`, the Ratio in the test on NIH 3T3 (Mus musculus) turned out to be 0.55. Also, the GI50 in the test on A549 came to 12 µM.

As for `COc1ccc(S(=O)(=O)Nc2ccccc2)cc1`, the Ratio with NIH 3T3 (Mus musculus) came to 0.63. In the test on A549, this compound showed a GI50 of 16 µM.

In the case of `Cc1ccccc1NS(=O)(=O)c1ccc(C(C)(C)C)cc1`, the Ratio in the test with NIH 3T3 (Mus musculus) was 0.49. In the test with A549, this compound had a GI50 of more than 80 µM.

Turning to `CC(C)(C)c1ccc(O)c(C2(c3ccccc3)C(=O)Nc3ccccc32)c1` (stereo unspecified), in the test with NIH 3T3 (Mus musculus), the Ratio was found to be 1.1. The compound also gave a concentration for 50% growth inhibition (GI50) in the test with A549 of 3 µM. Moreover, inhibition with DU-145 was half-maximal at 2490 nM (IC50).

For the compound `Cc1cc(C2(c3ccccc3)C(=O)Nc3ccccc32)c(NS(=O)(=O)c2ccc(C(C)(C)C)cc2)cc1O` (stereo unspecified), in the test on NIH 3T3 (Mus musculus), the Ratio came out at 1.06. In addition, it took 0.8 µM to inhibit growth in the test with A549 by half (GI50). Besides, the midpoint of inhibition in the test with DU-145, the IC50, lay at 1080 nM.

For the compound `CC(=O)Nc1ccc(S(=O)(=O)Nc2ccc(C)c(O)c2)cc1`, in the test with NIH 3T3 (Mus musculus), the Ratio is reported as 0.19. This compound gave a GI50 with A549 of 48 µM.

For `Cc1cc(C2(c3ccccc3)C(=O)Nc3ccccc32)c(NS(=O)(=O)c2ccc(-c3ccccc3)cc2)cc1O` (stereo unspecified), the Ratio in the test on NIH 3T3 (Mus musculus) was 0. In addition, the GI50 with A549 worked out at 4 µM.

Turning to `CC(C)(C)c1ccc(S(=O)(=O)Nc2ccc(O)cc2)cc1`, in the test on NIH 3T3 (Mus musculus), the Ratio was 0.33. For the same compound, in the test on A549, growth was halved (GI50) at 14 µM.

On to `Cc1ccc(NS(=O)(=O)c2ccc(C(C)(C)C)cc2)cc1`, for which the Ratio in the test with NIH 3T3 (Mus musculus) is reported as 1.11. For the same compound, the GI50 in the test with A549 is 11 µM.

In the case of `Cc1cc(C2(c3ccccc3)C(=O)Nc3ccccc32)c(NS(=O)(=O)c2ccc(Oc3ccccc3)cc2)cc1O` (stereo unspecified), in the test with NIH 3T3 (Mus musculus), the Ratio was found to be 0. Also, the GI50 in the test with A549 came to 5 µM.

In the case of `CC(C)(C)c1ccc(S(=O)(=O)Nc2ccccc2)cc1`, the Ratio in the test with NIH 3T3 (Mus musculus) stood at 1.44. In the test with A549, this compound returned a GI50 of 16 µM.

Regarding `O=[N+]([O-])c1ccc(S(=O)(=O)Nc2ccccc2)cc1`, the Ratio with NIH 3T3 (Mus musculus) was determined as 0.13. In addition, the 50% growth inhibitory concentration (GI50) with A549 was 52 µM.

On to `O=S(=O)(Nc1ccccc1)c1ccccc1` [PHENYL(PHENYLSULFONYL)AMINE], for which the Ratio in the test on NIH 3T3 (Mus musculus) came out at 0. For the same compound, the GI50 with A549 was more than 80 µM.

For `O=S(=O)(Nc1ccccc1)c1ccc(Br)cc1`, in the test on NIH 3T3 (Mus musculus), the Ratio stood at 0.38. In the test with A549, this compound yielded a GI50 of 30 µM.

Take `Cc1cc(O)c(NS(=O)(=O)c2ccc(C(C)(C)C)cc2)cc1C1(c2ccccc2)C(=O)Nc2ccccc21` (stereo unspecified): in the test with NIH 3T3 (Mus musculus), the Ratio came to 0.44. Also, in the test on A549, the GI50 was more than 20 µM.

With `Cc1ccc(NS(=O)(=O)c2ccc(C(C)(C)C)cc2)c(O)c1`, the Ratio in the test on NIH 3T3 (Mus musculus) stood at 1.44. The compound further came in with a GI50 in the test with A549 of 8 µM.

On to `CC(C)(C)c1ccc(S(=O)(=O)Nc2ccccc2O)cc1`, for which the Ratio in the test with NIH 3T3 (Mus musculus) was found to be 1.17. Further, the GI50 in the test with A549 amounted to 13 µM.

As for `Cc1ccc(NS(=O)(=O)c2ccc([N+](=O)[O-])cc2)cc1O`, the Ratio with NIH 3T3 (Mus musculus) stood at 0.14. The compound also had a GI50 in the test on A549 of 29 µM.

Turning to `Cc1ccc(NS(=O)(=O)c2ccc(Oc3ccccc3)cc2)cc1O`, the Ratio in the test on NIH 3T3 (Mus musculus) was 1.1. Also, in the test with A549, the GI50 is 7 µM.

`Cc1cccc(NS(=O)(=O)c2ccc(C(C)(C)C)cc2)c1`: the Ratio in the test with NIH 3T3 (Mus musculus) worked out at 0.95. The GI50 with A549 is 80 µM.

For `CN(c1ccccc1)S(=O)(=O)c1ccc(C(C)(C)C)cc1`, the Ratio in the test on NIH 3T3 (Mus musculus) was 0.14. In addition, in the test on A549, the GI50 was 30 µM.

In the case of `O=S(=O)(Nc1ccccc1)c1ccc(I)cc1`, the Ratio with NIH 3T3 (Mus musculus) is 0.87. The GI50 in the test on A549 turned out to be 23 µM.

Turning to `COc1ccc(S(=O)(=O)Nc2ccc(C)c(O)c2)cc1`, the Ratio in the test with NIH 3T3 (Mus musculus) is 0.12. The same compound returned a GI50 with A549 of 51 µM.

Regarding `Cc1ccc(NS(=O)(=O)c2ccc(-c3ccccc3)cc2)cc1O`, in the test with NIH 3T3 (Mus musculus), the Ratio was 0.72. In addition, the GI50 in the test on A549 was found to be 9 µM.

In the case of `Cc1ccc(NS(=O)(=O)c2ccc(C(C)(C)C)cc2)cc1O`, the Ratio in the test on NIH 3T3 (Mus musculus) is on record as 1.12. The compound also had a GI50 in the test with A549 of 6 µM.

With `Cc1ccc(NS(=O)(=O)c2ccc(Br)cc2)cc1O`, the Ratio in the test on NIH 3T3 (Mus musculus) was determined as 0.27. The compound also yielded a GI50 with A549 of 20 µM.

As for `Cc1ccc(NS(=O)(=O)c2ccc(I)cc2)cc1O`, the Ratio in the test with NIH 3T3 (Mus musculus) is on record as 0.45. This compound gave a concentration for 50% growth inhibition (GI50) in the test on A549 of 15 µM.

A word on the GI50: it is the concentration giving 50% growth inhibition. Higher therefore signals less potent growth inhibition. A word on the IC50: it is the concentration needed to halve the response being measured.
